The values that follow come from patent publication US20080255127A1, “Pesticide Formulations with a Crystallization Risk, and a Method for Their Preparation” (priority 2005, published 2008).

The first data set in a line: Risk of crystallization of pesticides in ECs and EWs. Type of data set: physicochemical. Particulars: conventional recipes; EW with less than 10% of water. The source says: This is what happened in the case of both EP655197 and EP453899, where the compositions for which the disclosed anticrystallization agents (N,N-dialkylamides) cover the whole range of triazoles with a fungicidal action, without giving examples of all of the compositions in which it is appropriate to use N,N-dimethylalkylamides. […] Propioconazole is an example.
The inventors have established that it is not the similarly of the chemical structure that puts the pesticide “at risk” of crystallization in ECs and EWs, but instead it is much more sensible to evaluate certain experimental parameters (or parameters that are calculated semi-empirically) in order to predict the risk of crystallization. In numerous tests, the inventors have found some pesticides with a risk of crystallization and others without. This risk refers in concrete terms to what happens when 5 ml of the EC or EW is diluted with 95 ml of water and kept in a refrigerator (at 1° C.), after which the emulsion is passed through a 5-μm filter 7 days later.
As to Propioconazole, the “Crystallization problems in an emulsifiable concentrate (EC) or emulsion in water (EW)” value is “free of crystallization problems”.

The nature of a further data set: Crystallization test of EW formulations Dn (25-μm metal filter). The class given is physicochemical. Set-up: key to Crystallization: −: A minus sign indicates the absence of crystals; +: a plus sign indicates their presence. The note with it: 5.0% pesticide in formulation Dn. The method, then:
In the crystallization test, an emulsion consisting of 2% of the formulation in 98 ml of water was kept at 1° C. for 24 h and was then passed through a 25-μm metal filter. A minus sign indicates the absence of crystals, while a plus sign indicates their presence. […] The worst emulsion, which however was still acceptable, scored +, a good emulsion scored ++ and the best ones scored +++. Both the phase separation and the time of its occurrence were observed when evaluating the emulsion. […] A single + sign means that some oil did separate out after 2 hours.
In the case of `CC1CCCCC1NC(=O)Nc1ccccc1` (centres unmarked) [siduron], the “Crystallization problems (in words)” value was “had crystallization problems”.
For `CCOC(=O)CSc1nc(C(C)(C)C)nn1C(=O)N(C)C` [triazamate], the “Crystallization problems (in words)” value is on record as “had crystallization problems”.

The same data set, now with this note: 5.0% pesticide in formulation Dn; 2% of the formulation in 98 ml of water, 1° C. for 24 h, 25-μm metal filter.
As for `O=C(O)COc1ccc(Cl)cc1Cl` [2,4-D], the Crystallization result is “−”.
In the case of `Cc1cc(Cl)ccc1OCC(=O)O` [MCPA], the Crystallization entry is listed as “−”.
With `CCNc1nc(Cl)nc(NC(C)C)n1` [atrazine], the Crystallization result is “−”.
On to `COP(=S)(OC)SCn1nnc2ccccc2c1=O` [azinphos-methyl], for which the Crystallization result is listed as “−”.
On the same count and under the same terms, to `O=c1oc2ccccc2c(O)c1C(CC(O)c1ccc(-c2ccc(Br)cc2)cc1)c1ccccc1` (centres unmarked) [bromadiolone] belongs “−”; to `Clc1ccc(C2(Cn3cncn3)CC(Br)CO2)c(Cl)c1` (centres unmarked) [bromuconazole], “−”.
As to `C=CCOC(=O)C(C)(C)OC(=O)c1cc(-n2c(=O)cc(C(F)(F)F)n(C)c2=O)ccc1Cl` [butafenacil], the Crystallization result is given as “−”.
As to `Cc1ccc(NC(=O)N(C)C)cc1Cl` [chlorotoluron], the Crystallization result was “−”.
As for `O=c1oc2ccccc2c(O)c1C1CCCc2ccccc21` (centres unmarked) [coumatetralyl], the Crystallization result is on record as “+”.
`O=C(O)C1(C(=O)Nc2ccc(Cl)cc2Cl)CC1` [cyclanilide]: the Crystallization entry is listed as “−”.
On the same count and under the same terms, as for `CC(C1CC1)C(O)(Cn1cncn1)c1ccc(Cl)cc1` (centres unmarked) [cyproconazole], the entry is “−”; as for `CC1COC(Cn2cncn2)(c2ccc(Oc3ccc(Cl)cc3)cc2Cl)O1` (centres unmarked) [difenconazole], “−”; as for `COc1ccc(C(=CC(=O)N2CCOCC2)c2ccc(Cl)cc2)cc1OC` [dimethomorph], “−”.
With `CN(C)C(=O)Nc1ccc(Cl)c(Cl)c1` [diuron], the Crystallization entry is on record as “−”.
On the same count and under the same terms, as for `CCOc1ccccc1OS(=O)(=O)NC(=O)Nc1nc(OC)cc(OC)n1` [ethoxysulfuron], the entry is “−”; as for `CC1(C(=O)Nc2ccc(O)c(Cl)c2Cl)CCCCC1` [fenhexamid], “−”; as for `C/C(=N/Nc1nc(C)cc(C)n1)c1ccccc1C` [ferimzone], “−”.
The same measure, in the same setting: as for `C[Si](Cn1cncn1)(c1ccc(F)cc1)c1ccc(F)cc1` [flusilazole], the entry is “−”; as for `CS(=O)(=O)NC(=O)c1cc(Oc2ccc(C(F)(F)F)cc2Cl)ccc1[N+](=O)[O-]` [fomesafen], “−”.
In the case of `c1coc(-c2nc3ccccc3[nH]2)c1` [fuberidazole], the Crystallization entry is on record as “−”.
For `COC(=O)C(C)N(C(=O)c1ccco1)c1c(C)cccc1C` (centres unmarked) [furalaxyl], the Crystallization result is given as “−”.
The same measure, in the same setting: as for `CC(C)(C)N(NC(=O)c1ccc(Cl)cc1)C(=O)c1ccccc1` [halofenozide], the entry is “−”; as for `C=CCOC(Cn1ccnc1)c1ccc(Cl)cc1Cl` (centres unmarked) [imazalil], “−”.
Consider `CCC1(CC2(c3cccc(Cl)c3)CO2)C(=O)c2ccccc2C1=O` (centres unmarked) [indanofan], for which the Crystallization entry is “−”.
Same read-out and setting: as for `Cc1ccc(C(C)NC(=O)[C@@H](NC(=O)OC(C)C)C(C)C)cc1` (some centres unmarked) [iprovalicarb], the entry is “−”; as for `CC(C)c1ccc(NC(=O)N(C)C)cc1` [isoproturon], “−”.
The same measure, in the same setting: as for `CON(C)C(=O)Nc1ccc(Cl)c(Cl)c1` [linuron], the entry is “−”.
As for `CCOC(=O)C1=NN(c2ccc(Cl)cc2Cl)C(C)(C(=O)OCC)C1` (centres unmarked) [mefenpyr-diethyl], the Crystallization result was “−”.
As for `CC1(C)CCC(Cc2ccc(Cl)cc2)C1(O)Cn1cncn1` (centres unmarked) [metconazole], the Crystallization result was “−”.
On to `CNC(=O)Oc1cc(C)c(SC)c(C)c1` [methiocarb], for which the Crystallization result was “−”.
With `OC(c1ccc(F)cc1)(c1cncnc1)c1ccccc1Cl` (centres unmarked) [nuarimol], the Crystallization result is given as “−”.
With `CC(C)(C)C(O)C(Cc1ccc(Cl)cc1)n1cncn1` (centres unmarked) [paclobutrazole], the Crystallization result was “−”.
As to `CCC(=O)Nc1ccc(Cl)c(Cl)c1` [propanil], the Crystallization entry is listed as “−”.
On the same count and under the same terms, as for `OC(Cc1ccccc1Cl)(Cn1nc[nH]c1=S)C1(Cl)CC1` (centres unmarked) [prothioconazole], the entry is “−”.
Take `CCOP(=S)(OCC)Oc1ccc(=O)n(-c2ccccc2)n1` [pyridaphenthion]: the Crystallization entry was “−”.
As to `CC1CCCCC1NC(=O)Nc1ccccc1` (centres unmarked) [siduron], the Crystallization entry is “+”.
For `CCNc1nc(NCC)nc(SC)n1` [simetryn], the Crystallization entry is “−”.
`CC(C)(C)C(O)(CCc1ccc(Cl)cc1)Cn1cncn1` (centres unmarked) [tebuconazole]: the Crystallization entry is recorded as “−”.
In the case of `CC(C)(C)C(=O)C(Oc1ccc(Cl)cc1)n1cncn1` (centres unmarked) [triadimefon], the Crystallization entry is on record as “−”.
On the same count and under the same terms, to `CC(C)(C)C(O)C(Oc1ccc(Cl)cc1)n1cncn1` (centres unmarked) [triadimenol] belongs “−”.
For the compound `CCOC(=O)CSc1nc(C(C)(C)C)nn1C(=O)N(C)C` [triazamate], the Crystallization result is given as “+”.
